Data reported in patent publication US9012491B2, “Heterocyclic boronic acid ester derivatives and therapeutic uses thereof” (priority 2011, dated 2015).
Read-outs that look alike come from different tables or passages of the source.

Experiments:
Type in all cases: cell-based
KPX1001 (OXA-2, class D) = experiment: Tigemonam potentiation (MPC@4) by β-lactamase inhibitors; details: tigemonam at 4 μg/mL, strain KPX1001, OXA-2, class D
Method: (§1) Selected β-lactamase inhibitors were tested for their ability to potentiate the monobactam tigemonam. […] Tigemonam is present in the test medium at 4 μg/mL. Compounds tested at the highest concentration of 40 μg/mL. In this assay potency of compounds is determined as a concentration of BLIs to inhibit growth of bacteria in the presence of 4 μg/mL of […] (MPC@4).

PAM2035 (class C) = details: tigemonam at 4 μg/mL, strain PAM2035, class C
Method: as §1

EC1010 (CMY-6, class C) = experiment: Tigemonam potentiation (MPC@4) by β-lactamase inhibitors; details: tigemonam at 4 μg/mL; strain EC1010, CMY-6, class C; class symbols
Method: as §1

ECL1002 (class C) = experiment: as above; details: tigemonam at 4 μg/mL; strain ECL1002, class C; class symbols
Method: as §1

KP1005 (CTX-M-14) = experiment: as above; details: tigemonam at 4 μg/mL; strain KP1005, class A ESBL CTX-M-14; class symbols
Method: as §1

KP1007 (OXA-10, class D) = experiment: as above; details: tigemonam at 4 μg/mL; strain KP1007, OXA-10, class D; class symbols
Method: as §1

KP1009 (CTX-M-15) = experiment: as above; details: tigemonam at 4 μg/mL; strain KP1009, class A ESBL CTX-M-15; class symbols
Method: as §1

KP1010 (SHV-12) = experiment: as above; details: tigemonam at 4 μg/mL; strain KP1010, class A ESBL SHV-12; class symbols
Method: as §1

ec302 (TEM-10) = experiment: as above; details: tigemonam at 4 μg/mL; strain ec302, class A ESBL TEM-10; class symbols
Method: as §1

ec308 (SHV-5) = experiment: as above; details: tigemonam at 4 μg/mL; strain ec308, class A ESBL SHV-5; class symbols
Method: as §1

EC1009 (TEM-10) = experiment: as above; details: tigemonam at 4 μg/mL; strain EC1009, class A ESBL TEM-10; class symbols
Method: as §1

KP1012 (SHV-18) = experiment: as above; details: tigemonam at 4 μg/mL; strain KP1012, class A ESBL SHV-18; class symbols
Method: as §1

ec304 (TEM-26) = experiment: as above; details: tigemonam at 4 μg/mL; strain ec304, class A ESBL TEM-26; class symbols
Method: as §1

## C[C@]1(Cn2ccnn2)[C@H](C(=O)O)N2C(=O)C[C@H]2S1(=O)=O [Tazobactam]
KPX1001 (OXA-2, class D)
  MPC4 OXA-2, KPX1001: 40 µg/mL
PAM2035 (class C)
  MPC4 PAM2035: 5 µg/mL

## CC(=O)N1CC(CC(=O)O)OB(O)[C@@H](NC(=O)Cc2cccs2)C1 (stereo partly drawn) [Compound 10, 2-((3R)-5-acetyl-2-hydroxy-3-(2-(thiophen-2-yl)acetamido)-1,5,2-oxazaborepan-7-yl)acetic acid]
EC1010 (CMY-6, class C)
  MPC4 CMY-6, EC1010: Y (Y = MPC@4 of 2 μg/mL to 10 μg/mL.)
ECL1002 (class C)
  MPC4 ECL1002: Y (Y = MPC@4 of 2 μg/mL to 10 μg/mL.)
KP1005 (CTX-M-14)
  MPC4 CTX-M-14 KP1005: Y (Y = MPC@4 of 2 μg/mL to 10 μg/mL.)
KP1007 (OXA-10, class D)
  MPC4 OXA-10, KP1007: X (X = MPC@4 of less than 2 μg/mL.)
KP1009 (CTX-M-15)
  MPC4 CTX-M-15 KP1009: Y (Y = MPC@4 of 2 μg/mL to 10 μg/mL.)
KP1010 (SHV-12)
  MPC4 SHV-12 KP1010: X (X = MPC@4 of less than 2 μg/mL.)
ec302 (TEM-10)
  MPC4 TEM-10 ec302: Z (Z = MPC@4 of greater than 10 μg/mL.)
ec308 (SHV-5)
  MPC4 SHV-5 ec308: Y (Y = MPC@4 of 2 μg/mL to 10 μg/mL.)

## O=C(O)CC1COC[C@H](NC(=O)Cc2cccs2)B(O)O1 (stereo partly drawn) [Compound 1, 2-((3R)-2-hydroxy-3-(2-(thiophen-2-yl)acetamido)-1,5,2-dioxaborepan-7-yl)acetic acid]
EC1009 (TEM-10)
  MPC4 TEM-10 EC1009: Z (Z = MPC@4 of greater than 10 μg/mL.)
EC1010 (CMY-6, class C)
  MPC4 CMY-6, EC1010: X (X = MPC@4 of less than 2 μg/mL.)
ECL1002 (class C)
  MPC4 ECL1002: Y (Y = MPC@4 of 2 μg/mL to 10 μg/mL.)
KP1005 (CTX-M-14)
  MPC4 CTX-M-14 KP1005: Y (Y = MPC@4 of 2 μg/mL to 10 μg/mL.)
KP1007 (OXA-10, class D)
  MPC4 OXA-10, KP1007: Y (Y = MPC@4 of 2 μg/mL to 10 μg/mL.)
KP1009 (CTX-M-15)
  MPC4 CTX-M-15 KP1009: Y (Y = MPC@4 of 2 μg/mL to 10 μg/mL.)
KP1010 (SHV-12)
  MPC4 SHV-12 KP1010: X (X = MPC@4 of less than 2 μg/mL.)
KP1012 (SHV-18)
  MPC4 SHV-18 KP1012: X (X = MPC@4 of less than 2 μg/mL.)
KPX1001 (OXA-2, class D); class symbols
  MPC4 OXA-2, KPX1001: X (X = MPC@4 of less than 2 μg/mL.)
ec302 (TEM-10)
  MPC4 TEM-10 ec302: Z (Z = MPC@4 of greater than 10 μg/mL.)
ec304 (TEM-26)
  MPC4 TEM-26 ec304: Z (Z = MPC@4 of greater than 10 μg/mL.)
ec308 (SHV-5)
  MPC4 SHV-5 ec308: Y (Y = MPC@4 of 2 μg/mL to 10 μg/mL.)
PAM2035 (class C); class symbols
  MPC4 PAM2035: Y (Y = MPC@4 of 2 μg/mL to 10 μg/mL.)

## O=C(O)[C@H]1/C(=C/CO)O[C@@H]2CC(=O)N21 [Clavulanic Acid]
KPX1001 (OXA-2, class D)
  MPC4 OXA-2, KPX1001: 1.25 µg/mL
PAM2035 (class C)
  MPC4 PAM2035: >40 µg/mL

## COC(=O)N1CC(CC(=O)O)OB(O)[C@@H](NC(=O)Cc2cccs2)C1 (stereo partly shown) [Compound 45]
KP1005 (CTX-M-14)
  MPC4 CTX-M-14 KP1005: Y (Y = MPC@4 of 2 μg/mL to 10 μg/mL.)
KP1007 (OXA-10, class D)
  MPC4 OXA-10, KP1007: X (X = MPC@4 of less than 2 μg/mL.)
KP1009 (CTX-M-15)
  MPC4 CTX-M-15 KP1009: Y (Y = MPC@4 of 2 μg/mL to 10 μg/mL.)
KP1010 (SHV-12)
  MPC4 SHV-12 KP1010: X (X = MPC@4 of less than 2 μg/mL.)
ec302 (TEM-10)
  MPC4 TEM-10 ec302: Z (Z = MPC@4 of greater than 10 μg/mL.)
ec308 (SHV-5)
  MPC4 SHV-5 ec308: Y (Y = MPC@4 of 2 μg/mL to 10 μg/mL.)
